PubChem BioAssay (NCI)
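Briefly, cells in 96-well plates were exposed to five compound concentrations for 48 h, and endpoints were estimated by linear interpolation. The concentration for 50% growth inhibition is given as GI50. Definition used: TGI = concentration required for complete inhibition of growth.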

Key:
Assay in all cases: DTP human tumour cell line panel, 48 h
[1] = system: HOP-92 NSCLC
[2] = system: UACC-62 melanoma
[3] = system: SK-MEL-5 melanoma
[4] = system: MCF7 breast
[5] = system: SF-539 CNS
[6] = system: MOLT-4 leukemia
[7] = system: SK-MEL-28 melanoma
[8] = system: SF-268 CNS
[9] = system: SF-295 CNS
[10] = system: SNB-19 CNS
[11] = system: DU-145 prostate
[12] = system: A549 NSCLC
[13] = system: EKVX NSCLC
[14] = system: NCI-H460 lung
[15] = system: MALME-3M melanoma
[16] = system: COLO 205 colon
[17] = system: UACC-257 melanoma
[18] = system: U251 CNS
[19] = system: OVCAR-8 ovarian
[20] = system: OVCAR-3 ovarian
[21] = system: BT-549 breast
[22] = system: ACHN renal
[23] = system: M14 melanoma
[24] = system: OVCAR-4 ovarian
[25] = system: RXF 393 renal
[26] = system: K-562 leukemia
[27] = system: LOX IMVI melanoma
[28] = system: A498 renal
[29] = system: SK-OV-3 ovarian
[30] = system: NCI/ADR-RES ovarian
[31] = system: MDA-MB-435
[32] = system: MDA-MB-468 breast
[33] = system: NCI-H226 lung
[34] = system: HS 578T breast
[35] = system: HL-60(TB) leukemia
[36] = system: KM12 colon
[37] = system: HOP-62 NSCLC
[38] = system: HCT-15 colon
[39] = system: SW-620 colon
[40] = system: SR leukemia
[41] = system: 786-0 renal
[42] = system: OVCAR-5 ovarian
[43] = system: HCC-2998 colon
[44] = system: NCI-H23 lung
[45] = system: NCI-H522 lung
[46] = system: CAKI-1 renal
[47] = system: TK-10 renal
[48] = system: CCRF-CEM leukemia
[49] = system: HT29 colon
[50] = system: PC-3 prostate
[51] = system: IGROV1 ovarian
[52] = system: T-47D breast
[53] = system: RPMI-8226 leukemia
[54] = system: SN12C renal
[55] = system: HCT-116 colon

SMILES: COc1c(B(O)O)cc(F)cc1-c1nc2c(F)cc3[nH]ncc3c2c2c1CCCC2
- GI50 [1]: 19.9 nM
- TGI [1]: 86.5 µM
- GI50 [2]: 4.09 µM
- TGI [2]: 17.1 µM
- GI50 [3]: 14.4 µM
- TGI [3]: 33.2 µM
- GI50 [4]: 3.83 µM
- TGI [4]: 23.1 µM
- GI50 [5]: 596 nM
- TGI [5]: 12.7 µM
- GI50 [6]: 2750 nM
- TGI [6]: 30.9 µM
- GI50 [7]: 13.1 µM
- TGI [7]: 38.4 µM
- GI50 [8]: 3.05 µM
- TGI [8]: 81.1 µM
- GI50 [9]: 10.7 µM
- TGI [9]: 40.1 µM
- GI50 [10]: 3.46 µM
- TGI [10]: 66.4 µM
- GI50 [11]: 6.53 µM
- TGI [11]: 56.4 µM
- GI50 [12]: 3.53 µM
- TGI [12]: 86.5 µM
- GI50 [13]: 5.04 µM
- TGI [13]: 63.4 µM
- GI50 [14]: 4.1 µM
- TGI [14]: 28.9 µM
- GI50 [15]: 14.8 µM
- TGI [15]: 34.2 µM
- GI50 [16]: 4.85 µM
- TGI [16]: 19.3 µM
- GI50 [17]: 14.6 µM
- TGI [17]: 62.8 µM
- GI50 [18]: 5.34 µM
- TGI [18]: > 100 µM
- GI50 [19]: 4.82 µM
- TGI [19]: > 100 µM
- GI50 [20]: 15.5 µM
- TGI [20]: 72.6 µM
- GI50 [21]: 84.5 nM
- TGI [21]: 6.85 µM
- GI50 [22]: 1380 nM
- TGI [22]: 42.4 µM
- GI50 [23]: 16.4 µM
- TGI [23]: 35.4 µM
- GI50 [24]: 14.9 µM
- TGI [24]: 59.4 µM
- GI50 [25]: 88.7 nM
- TGI [25]: 1900 nM
- GI50 [26]: 19.1 µM
- TGI [26]: > 100 µM
- GI50 [27]: 2430 nM
- TGI [27]: 16.5 µM
- GI50 [28]: 12.8 µM
- TGI [28]: 46.5 µM
- GI50 [29]: 4.1 µM
- TGI [29]: 77.2 µM
- GI50 [30]: 8.18 µM
- TGI [30]: > 100 µM
- GI50 [31]: 13.8 µM
- TGI [31]: 34.2 µM
- GI50 [32]: 11.7 µM
- TGI [32]: 39.9 µM
- GI50 [33]: 3.3 µM
- TGI [33]: 72.8 µM
- GI50 [34]: 293 nM
- TGI [34]: 63.9 µM
- GI50 [35]: 2420 nM
- TGI [35]: 10.9 µM
- GI50 [36]: 4.47 µM
- TGI [36]: 31.6 µM
- GI50 [37]: 2950 nM
- TGI [37]: 54 µM
- GI50 [38]: 4.45 µM
- TGI [38]: 44.5 µM
- GI50 [39]: 4.15 µM
- TGI [39]: > 100 µM
- GI50 [40]: 1400 nM
- TGI [40]: 11.4 µM
- GI50 [41]: 2020 nM
- TGI [41]: 18.7 µM
- GI50 [42]: 5.77 µM
- TGI [42]: 66 µM
- GI50 [43]: 11.8 µM
- TGI [43]: 40.1 µM
- GI50 [44]: 7.03 µM
- TGI [44]: 31.3 µM
- GI50 [45]: 3.66 µM
- TGI [45]: 43.6 µM
- GI50 [46]: 158 nM
- TGI [46]: 1580 nM
- GI50 [47]: 275 nM
- TGI [47]: > 100 µM
- GI50 [48]: 3.07 µM
- TGI [48]: 80.3 µM
- GI50 [49]: 14.6 µM
- TGI [49]: > 100 µM
- GI50 [50]: 4.9 µM
- TGI [50]: > 100 µM
- GI50 [51]: 7.75 µM
- TGI [51]: 45.9 µM
- GI50 [52]: 12.5 µM
- TGI [52]: 61.9 µM
- GI50 [53]: 2140 nM
- TGI [53]: 19.6 µM
- GI50 [54]: 2900 nM
- TGI [54]: 62.2 µM
- GI50 [55]: 2100 nM
- TGI [55]: 36.7 µM
